Results from PubChem BioAssay (NCI).
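Grown in 96-well plates, cells were treated for 48 hours with each compound at five concentrations. Insufficient inhibition: endpoint recorded as highest concentration tested. GI50 marks 50% less growth. The concentration for full growth arrest is given as TGI.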

Tests used:
Test in all cases: NCI-60 cell line screen, 48 h
KM20L2 colon = test system: KM20L2 colon
DMS 114 small cell lung = test system: DMS 114 small cell lung
DMS 273 small cell lung = test system: DMS 273 small cell lung
RXF-631 renal = test system: RXF-631 renal
DLD-1 colon = test system: DLD-1 colon
LXFL 529 NSCLC = test system: LXFL 529 NSCLC
HOP-18 NSCLC = test system: HOP-18 NSCLC
SNB-78 CNS = test system: SNB-78 CNS
XF 498 CNS = test system: XF 498 CNS

`Nc1nc(=O)n(CC(O)CO)s1` (stereo not drawn) gave a TGI (KM20L2 colon) greater than 100 µM, a TGI (DMS 114 small cell lung) greater than 100 µM and a TGI (DMS 273 small cell lung) greater than 100 µM. It also gave a TGI (RXF-631 renal) greater than 100 µM, a TGI (DLD-1 colon) greater than 100 µM and a TGI (LXFL 529 NSCLC) greater than 100 µM. It also gave a TGI (HOP-18 NSCLC) greater than 100 µM.
With `O=C(NNC(=O)c1nsc2ccccc12)c1ccc(Cl)cc1` the TGI (KM20L2 colon) was 53.8 µM, the TGI (DMS 273 small cell lung) was 25.1 µM and the TGI (LXFL 529 NSCLC) was 39.8 µM. For the same compound, the TGI (HOP-18 NSCLC) was 27.4 µM and the TGI (SNB-78 CNS) was 61.7 µM.
`Cc1ccc(SSCCCCCS(=O)O)cc1` gave a TGI (DMS 114 small cell lung) of 45.2 µM, a TGI (RXF-631 renal) greater than 100 µM and a TGI (DLD-1 colon) greater than 100 µM. It also gave a TGI (LXFL 529 NSCLC) of 28.5 µM, a TGI (XF 498 CNS) of 49.6 µM and a TGI (SNB-78 CNS) of 82.1 µM.
In the case of `N#C[S-].[Ce+3].c1cnc2c(c1)ccc1cccnc12.c1cnc2c(c1)ccc1cccnc12.c1cnc2c(c1)ccc1cccnc12`, the GI50 (KM20L2 colon) is reported as 1.33 µM, the TGI (KM20L2 colon) is reported as 14.7 µM and the GI50 (DMS 114 small cell lung) is reported as 1.64 µM. The TGI (DMS 114 small cell lung) was 4.52 µM, the GI50 (LXFL 529 NSCLC) was 2.3 µM and the TGI (LXFL 529 NSCLC) was 24.6 µM. It also gave a GI50 (HOP-18 NSCLC) of 1.2 µM, a TGI (HOP-18 NSCLC) of 7.53 µM and a GI50 (XF 498 CNS) of 3.27 µM. For the same compound, the TGI (XF 498 CNS) was 8.95 µM.
